Test results published in patent publication US20230056205A1, “SUBSTITUTED 4,6-DIHYDROSPIRO[[1,2,3]TRIAZOLO[4,5-B]PYRIDINE-7,3'-INDOLINE]-2',5(3H)-DIONE ANALOGUES” (The Board of Regents of The University of Texas System, priority 2019, published 2023).

Legend:
[1] = test system: P12 resistant DENV-2 viruses (NS4B V63M or V63L); type: cell-based, DENV-2 strain NGC
DENV-2 replicon = experiment: Luciferase reporter replicon-based screening, DENV-2; type: cell-based, DENV-2 (New Guinea C strain, NGC); settings: Dengue virus, DENV2, Huh-7, 48 h, read-out: EC50 DENV-2, Huh7 cells stably expressing DENV-2 replicon, 48 h
Procedure, shortened: (§1)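 Huh7 cells carrying Renilla luciferase/neo replicons of DENV-1 (WestPac), DENV-2 (NGC), DENV-3 (D3MY05-34640) or DENV-4 (D4MY01-22713), treated with 2-fold compound dilutions for 48 h at 37 °C in duplicate. Live-cell luciferase read; EC50 by four-parameter logistic fit.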

[2] = Cytotoxicity assay (CellTiter-Glo); type: cell-based; settings: human, Huh7 cells stably expressing DENV-2 replicon
Procedure, shortened: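 Huh7 or Huh7 replicon cells, seeded overnight at 37 °C, exposed to 2-fold serial dilutions of compound for 48 h in duplicate. Viability by CellTiter-Glo, normalised to 0.45% DMSO wells (100%); CC50 by four-parameter logistic regression.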

in vivo = type: in vivo, male SD rats
Procedure: In Vivo PK Studies. The PK profiles of compound 15 were determined in male SD rats following intravenous (i.v.) and oral (p.o.) administration of 10 and 20 mg/kg, respectively. The formulations used for i.v. and p.o. were solution in DMSO: 20% HP-β-CD in saline = 1:9. IV bolus injection, animal number N = 3; dose level: 10 mg/kg; sample collection time points: 5 min, 15 min, 30 min, 1 h, 2 h, 4 h, 8 h, 24 h; PO: animal number N = 3; fasting 12 h, dose level: 20 mg/kg; sample collection time points: 15 min, 30 min, 1 h, 2 h, 4 h, 8 h, 24 h. Plasma concentrations of compound 15 were measured by API-4000/5500 LC-MS/MS with 8 point standard curve and 6 QCs. Pharmacokinetic parameters were calculated by a non-compartmental approach using WinNonLin software.

DENV-2 strain NGC = experiment: Viral titer reduction assay, DENV-2 strain NGC; type: cell-based; settings: Dengue virus, DENV2, Huh-7; viral titer reduction assay on Huh7 cells
Procedure: Viral Titer Reduction Assay. Huh7 cells were seeded in a 96-well plate. The next day, cells were infected with DENV-2 strains NGC or D2Y98P at a MOI of 0.3 in the presence of 2-fold serial dilutions of compounds. Experiments were performed in triplicates. After incubation at 37° C. for 48 h, cell culture fluids were harvested. The infectious viruses in the culture fluids were determined by plaque assay using a protocol as described previously.^48 The EC50 values were calculated using four parameter logistic regression in GraphPad software Prism 8.0.

DENV-3 replicon = experiment: Luciferase reporter replicon-based screening, DENV-3; type: cell-based, DENV-3 (strain D3MY05-34640); settings: Dengue virus, DENV3, Huh-7, 48 h, read-out: EC50 DENV-3, Huh7 cells stably expressing DENV-3 replicon, 48 h
Procedure, shortened: as §1

DENV-1 replicon = experiment: Luciferase reporter replicon-based screening, DENV-1; type: cell-based, DENV-1 (strain WestPac); settings: Dengue virus, DENV1, Huh-7, 48 h, read-out: EC50 DENV-1
Procedure, shortened: as §1

DENV-4 replicon = experiment: Luciferase reporter replicon-based screening, DENV-4; type: cell-based, DENV-4 (strain D4MY01-22713); settings: Dengue virus, DENV4, Huh-7, 48 h, read-out: EC50 DENV-4
Procedure, shortened: as §1

With `CC(C)CCN1C(=O)[C@]2(CC(=O)Nc3c2nnn3[C@@H](C)c2ccc(Cl)cc2)c2cc(Cl)ccc21` [Compound 15, (R)-5'-Chloro-3-((S)-1-(4-chlorophenyl)ethyl)-1'-isopentyl-4,6-dihydrospiro[[1,2,3]triazolo[4,5-b]pyridine-7,3'-indoline]-2ʹ,5(3H)-dione] the “increase of viral resistance by mutation NS4B V63L” value ([1]; P12-VI virus, Huh7 cells) was 16 folds, the EC50 ([1]; viral reduction assay on Huh7 cells, read-out: EC50 against resistant viruses P12-VI) was 2000 nM and the EC50 (DENV-2 replicon) was 160 nM. For the same compound, the CC50 at 48 h [2] was greater than 10000 nM, the “AUC0- ∞” value (in vivo; iv 10 mg/kg, rat plasma) was 10,334 ng·h/mL and the CL (in vivo; iv 10 mg/kg, rat plasma) was 13.7 mL/min/kg. For the same compound, the Cmax (in vivo; iv 10 mg/kg, rat plasma) was 10,334 ng/mL, the MRT (in vivo; iv 10 mg/kg, rat plasma) was 2.28 h and the Vss (in vivo; iv 10 mg/kg, rat plasma) was 2.67 L/kg. It also gave a t½ (in vivo; iv 10 mg/kg, rat plasma) of 2.29 h, a Tmax (in vivo; male, SD, in vivo, po 20 mg/kg, rat plasma) of 1 h and a bioavailability (in vivo; male, SD, rat, in vivo, po 20 mg/kg vs iv 10 mg/kg, rats, read-out: F (absolute oral bioavailability)) of 30%. For the same compound, the “AUC0- ∞” value (in vivo; po 20 mg/kg, rat plasma) was 6,240 ng·h/mL, the CL (in vivo; po 20 mg/kg, rat plasma) was 59.5 mL/min/kg and the Cmax (in vivo; po 20 mg/kg, rat plasma) was 1,517 ng/mL. It also gave an MRT (in vivo; po 20 mg/kg, rat plasma) of 3.46 h, a Vss (in vivo; po 20 mg/kg, rat plasma) of 11.54 L/kg and a t½ (in vivo; po 20 mg/kg, rat plasma) of 2.24 h. The EC50 (DENV-2 strain NGC) was roughly 100 nM, the EC50 (DENV-3 replicon) was 35 nM and the EC50 (DENV-1 replicon) was 780 nM. For the same compound, the EC50 (DENV-4 replicon) was greater than 5000 nM.
